Results from ChEMBL document CHEMBL5537159, “Discovery and SAR of JTE-151: A Novel RORγ Inhibitor for Clinical Development” (J Med Chem, 2024).

Test: Genotoxicity in Salmonella typhimurium TA1535 at 188 to 5000 ug in absence of S9 fraction by bacterial reverse mutation test
Type: toxicity, Salmonella enterica subsp. enterica serovar Typhimurium
Settings: in vivo; dose 188-5000 µg

## Cc1ccc(NC(=O)C[C@H](CCC(=O)O)c2noc([C@H]3C[C@@H](CC(C)(C)C)C3)c2C2CC2)c(Cl)c1
  Activity: Non-Toxic
